Columns and labels:
[1] = test system: breast adenocarcinoma cell line (ATCC; HTB-131) transfected with HLA-A2.1; test: Tumor lysis by HER-2 peptide-specific CTL effectors; format: cell-based, human; details: cell line transfected with HLA-A2.1
HLA-A2.1 molecule = biological target: T1, HLA-A2.1 molecule (Homo sapiens, UniProt P04439, D140Y/D185E/D98H/E176V/E277Q/G131W/G231S/I119V/I121R/I166T/I218V/L300P/L318F/N151K/N90K/P208A/P217A/Q86G/Q94H/R138H/R169H/T345S); test: Peptide binding on Drosophila cells expressing HLA-A2.1
T1 construct: expressed in transfected cells; host or cells: Drosophila melanogaster Schneider S2 cells (ATCC CRL 10974), pRmHa-3 vector, CuSO4 induction

CD8 cells = test: Ex vivo CTL generation with peptide-loaded Drosophila cells; format: cell-based, human; details: for frequency of CTL generation: normal donors, summary of Table 7; for CTL activity elicited by single epitope on Drosophila cells: donor #60, peptide added alone, lysis on JY cells, vs control HBc peptide
Source text: Human CTLs from healthy subjects were immunized in vitro against tyrosinase, MART-1 and gp100 when loaded separately on Drosophila APCs and evaluated for lysis on JY cells (FIG. 4). […] Melanoma-specific CTLs from healthy subjects were induced using the full stimulation/re-stimulation protocol and tested for their ability to lyse Jurkat cells loaded with each of the of the peptides used in the stimulations (FIG. 5). […]. […] One in which the multiple peptides were loaded onto individual Drosophila cells and mixed before the primary stimulation (combo mix), or the multiple peptides were mixed and then loaded onto the Drosophila APCs (combo load).
All of the peptides were synthesized, given an identification number (PRI#) and evaluated for the ability to generate CTLs ex vivo utilizing the same method we employed for melanoma-associated, T cell peptide epitopes. CD8 cells were isolated from normal donors to determine the ability to routinely generate CTLs ex vivo with Drosophila cells loaded with known CTL peptide epitopes.
Standard ^51Cr-release assays were performed to determine CTL effector cell recognition of melanoma-associated peptide epitopes loaded onto T2 cells. […] 0.1mCi of ^51Cr was added and incubated at 37° C. in a water bath. […] The cells were pulsed with the appropriate peptide(s) at 20 μg/mL for thirty minutes. 50 μL was added to each 96-well plate each containing CD8 effector cells at 10, 2, 0.4, and 0.08×10^6/mL, which was incubated at 37° C. for six hours, spun and harvested for supernatant.
To extend the ability to raise CTLs to other tumor antigens present in a wide variety of other cancers we have selected published and novel sequences to tumor antigens common to several different tumor types.

CD8+ T cells = test: HLA-A2.1 tetramer staining of HER-2 peptide-specific CTLs; format: cell-based, human; details: donor 262, after four-week ex vivo stimulation protocol
Procedure: The cells were labeled with FITC- or PE conjugated monoclonal antibodies by incubation at 4° C. for 30 minutes in FACS buffer (1% BSA, 0.02% NaN3 in PBS), followed by a wash in the same buffer. Cells were fixed in 0.5% formaldehyde prior to data acquisition and analysis on a FACScan flow cytometer (Becton Dickinson) with its CellQuest software. Nonspecific staining was measured with the same secondary antibody used to label purified primary antibodies, or an isotype-matched control when the primary antibodies were directly labeled. Tetrameric staining was performed with HLA-A2.1 specific HIVgag tetrameric molecules (Beckman Coulter) harboring the sequence [sequence] […] PE-labeled tetrameric HLA-A2.1-peptide complexes were used in conjunction with fluorescein isothiocyanate (FITC)-labeled anti-human CD8a (BD PharMagin) monoclonal antibodies to stain epitope-specific CD8+ T cells as described in package insert. Samples were analyzed by two-color flow cytometry on a Becton Dickinson FACScan, and gated CD8+ T cells were examined for staining with tetrameric HLA-A2.1-peptide complexes.

TAP-1 = test: Microarray DNA chip analysis of mRNA levels after IFNγ induction; format: cell-based, human; details: HTB-77/A2.1 cells after IFNγ induction
HER-2 = test: FACS analysis of surface expression after IFNγ induction; format: cell-based, human
Procedure: (§1) The cells were treated with 500 U/ml of IFNγ (specific activity of 25 ng/ml) for twenty-four hours prior to the initiation of the ^51Cr-release assay. […] To determine the effect of this dose of IFNg on the surface expression of both HLA-A2.1 and HER-2, a FACS analysis was performed to determine the levels of these molecules after both twenty-four and forty-eight hours of induction. FIG. 18, Panels A and B depict the FACS analysis results. […] This would explain why there is an enhance killing of the HTB-77/A2.1 cells in the presence of IFNγ. An up-regulation of this particular molecule would result in more efficient processing of the HER-2 molecule, allowing better presentation of the peptides of interest

HLA-A2.1 = test: as above; format: cell-based, human; details: HLA-A2.1 transfected HTB-77 cells, similar treatment protocol
Procedure: as §1

HTB-77/A2.1 cell line = test: 51Cr-release lysis after IFNγ pretreatment; format: cell-based, human; details: 500 U/ml for twenty-four hours prior to 51Cr-release assay
Procedure: as §1

Substance | binding to the HLA-A2.1 molecule on transfected Drosophila cells (HLA-A2.1 molecule) | frequency of CTL generation (CD8 cells) | CTL activity elicited by single epitope on Drosophila cells (CD8 cells) | also measured
VMAGVGSPYV [Peptide 861] | weak to moderate binders | highest frequency of CTL generation | – | lysis of tumor cell line by CTLs specific for the peptide [1]: could lysis this tumor cell line; peptide-specific CTLs, tetramer-positive (CD8+ T cells): 15.1%
ITDQVPFSV [Peptide 817] | – | – | CTL activity was elicited | –
YMNGTMSQV [Peptide 689] | – | – | CTL activity was elicited | –
CLTSTVQLV [Peptide 826] | – | highest frequency of CTL generation | – | –
IFNγ: interferon gamma used to pretreat tumor cell lines at 500 U/ml | – | – | – | level of TAP-1 expression (mRNA); also HLA-DM and -DR, Cathepsin S and D and Caspase 5 (TAP-1): increase in the level of TAP-1 expression; HER-2 surface expression (HER-2; HLA-A2.1 transfected HTB-77 cells, similar treatment protocol): neither HER-2 nor HLA-A2.1 demonstrated an increase; HER-2 surface expression (HER-2; HTB-77 cells, twenty-four and forty-eight hours after induction): no enhancement; HLA-A2.1 surface expression (HLA-A2.1): neither HER-2 nor HLA-A2.1 demonstrated an increase; lysis of HLA-A2.1 transfected cell line (HTB-77/A2.1 cell line): enhanced lysis
ELVSEFSRM [Peptide 863] | weak to moderate binders | highest frequency of CTL generation | – | –

Source: US9222070B2, “Cell therapy method for the treatment of tumors” (Janssen Pharmaceuticals, Inc., priority 2001, dated 2015)
